# What was measured:
# [1] = test system: Aspergillus fumigatus; assay: Antifungal activity against Aspergillus fumigatus incubated for 48 to 72 hrs by broth microdilution method; assay type: functional; details: time 48-72 hrs
# [2] = test system: Candida albicans; assay: Antifungal activity against Candida albicans incubated for 48 to 72 hrs by broth microdilution method; assay type: functional; details: time 48-72 hrs
# [3] = test system: Aspergillus niger; assay: Antifungal activity against Aspergillus niger incubated for 48 to 72 hrs by broth microdilution method; assay type: functional; details: time 48-72 hrs
# [4] = test system: Leishmania amazonensis; assay: Antileishmanial activity against Leishmania amazonensis amastigotes infected in mouse macrophages assessed as inhibition of parasite growth incubated for 72 hrs by giemsa staining based analysis; assay type: functional, organism-based; details: Macrophage
# [5] = test system: Leishmania amazonensis; assay: Antileishmanial activity against Leishmania amazonensis promastigotes infected in mouse macrophages assessed as inhibition of parasite growth incubated for 72 hrs by giemsa staining based analysis; assay type: functional, organism-based; details: Macrophage
# [6] = Selectivity index, ratio of CC50 for cytotoxicity against mouse macrophage to IC50 for antileishmanial activity against Leishmania amazonensis amastigotes infected in mouse macrophages assessed as inhibition of parasite growth; assay type: toxicity, cell-based; details: read-out: Ratio CC50/IC50
# [7] = test system: Plasmodium falciparum; assay: Potency index, ratio of chloroquine IC50 to test compound IC50 for antimalarial activity against Plasmodium falciparum Dd2; assay type: functional
# [8] = test system: Plasmodium falciparum; assay: Antiplasmodial activity against chloroquine sensitive Plasmodium falciparum 3D7 incubated for 72 hrs by SYBR green I based fluorescence assay; assay type: functional, organism-based; details: 3D7, 72 h
# [9] = test system: Mus musculus; assay: Anti-inflammatory activity against carrageenan-induced paw edema mouse model assessed as reduction in edema measured after 1 hrs relative to control; assay type: functional; parameters: scale not given: the % may be the effect or the level left
# [10] = test system: Mus musculus; assay: Anti-inflammatory activity against carrageenan-induced paw edema mouse model assessed as reduction in edema measured after 2 hrs relative to control; assay type: functional; parameters: scale not given: the % may be the effect or the level left
# [11] = test system: Mus musculus; assay: Anti-inflammatory activity against carrageenan-induced paw edema mouse model assessed as reduction in edema measured after 3 hrs relative to control; assay type: functional; parameters: scale not given: the % may be the effect or the level left
# [12] = test system: Plasmodium falciparum; assay: Antiplasmodial activity against chloroquine resistant Plasmodium falciparum K1 infected in human erythrocytes incubated for 48 hrs by lactate dehydrogenase assay; assay type: functional, organism-based; details: K1, Erythrocyte
# [13] = test system: HepG2; assay: Cytotoxicity against human HepG2 cells assessed as cell viability incubated for 24 hrs by MTT assay relative to control; assay type: functional
# [14] = test system: Mycobacterium tuberculosis; assay: Antitubercular activity against Mycobacterium tuberculosis H37Rv assessed as inhibition of visible bacterial growth incubated for 7 days by broth microdilution method; assay type: functional; details: 168 h, time 7 day
# [15] = target: Cholinesterase (Equus caballus, UniProt P81908); assay: Inhibition of equine serum BChE using […] as substrate measured within 2 mins
# Chain of Cholinesterase (P81908 whole entry): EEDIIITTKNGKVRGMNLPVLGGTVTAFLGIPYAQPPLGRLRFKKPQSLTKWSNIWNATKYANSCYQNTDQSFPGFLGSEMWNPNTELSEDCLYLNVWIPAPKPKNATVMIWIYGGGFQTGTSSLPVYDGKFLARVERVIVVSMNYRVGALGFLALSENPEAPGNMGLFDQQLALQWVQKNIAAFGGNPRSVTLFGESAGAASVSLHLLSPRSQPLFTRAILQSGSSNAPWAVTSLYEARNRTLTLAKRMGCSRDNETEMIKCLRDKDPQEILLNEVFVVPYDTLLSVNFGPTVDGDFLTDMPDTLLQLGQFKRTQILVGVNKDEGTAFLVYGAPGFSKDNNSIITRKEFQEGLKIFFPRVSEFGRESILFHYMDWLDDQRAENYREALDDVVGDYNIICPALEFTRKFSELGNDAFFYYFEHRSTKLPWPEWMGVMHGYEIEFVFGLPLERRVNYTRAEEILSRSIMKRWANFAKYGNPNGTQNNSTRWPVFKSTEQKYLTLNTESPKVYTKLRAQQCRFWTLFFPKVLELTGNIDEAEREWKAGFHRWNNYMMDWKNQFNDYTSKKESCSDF
# [16] = target: Acetylcholinesterase (Electrophorus electricus, UniProt O42275); assay: Inhibition of electric eel AChE using […] as substrate measured within 2 mins
# Chain of Acetylcholinesterase (Electrophorus electricus, UniProt O42275) (O42275 whole entry): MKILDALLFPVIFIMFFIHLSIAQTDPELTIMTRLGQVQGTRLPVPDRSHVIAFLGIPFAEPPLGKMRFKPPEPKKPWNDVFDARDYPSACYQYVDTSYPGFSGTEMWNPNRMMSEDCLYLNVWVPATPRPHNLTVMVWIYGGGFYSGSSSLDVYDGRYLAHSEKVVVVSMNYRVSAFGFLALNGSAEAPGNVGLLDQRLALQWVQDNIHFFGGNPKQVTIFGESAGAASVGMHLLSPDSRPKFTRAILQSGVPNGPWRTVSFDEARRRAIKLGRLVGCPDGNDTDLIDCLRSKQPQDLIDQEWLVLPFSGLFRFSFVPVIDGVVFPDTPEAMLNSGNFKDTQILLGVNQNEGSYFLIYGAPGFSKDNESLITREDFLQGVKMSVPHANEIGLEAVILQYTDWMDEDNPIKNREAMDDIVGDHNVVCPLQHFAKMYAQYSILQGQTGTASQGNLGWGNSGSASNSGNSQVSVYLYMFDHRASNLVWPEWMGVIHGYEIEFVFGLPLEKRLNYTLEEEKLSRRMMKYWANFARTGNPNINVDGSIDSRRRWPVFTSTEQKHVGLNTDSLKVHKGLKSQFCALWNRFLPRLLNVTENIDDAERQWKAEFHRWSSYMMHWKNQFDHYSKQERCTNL
# [17] = target: Beta-secretase 1 (Homo sapiens, UniProt P56817); assay: Inhibition of BACE1 (unknown origin) by FRET assay
# Chain of Beta-secretase 1 (P56817 whole entry): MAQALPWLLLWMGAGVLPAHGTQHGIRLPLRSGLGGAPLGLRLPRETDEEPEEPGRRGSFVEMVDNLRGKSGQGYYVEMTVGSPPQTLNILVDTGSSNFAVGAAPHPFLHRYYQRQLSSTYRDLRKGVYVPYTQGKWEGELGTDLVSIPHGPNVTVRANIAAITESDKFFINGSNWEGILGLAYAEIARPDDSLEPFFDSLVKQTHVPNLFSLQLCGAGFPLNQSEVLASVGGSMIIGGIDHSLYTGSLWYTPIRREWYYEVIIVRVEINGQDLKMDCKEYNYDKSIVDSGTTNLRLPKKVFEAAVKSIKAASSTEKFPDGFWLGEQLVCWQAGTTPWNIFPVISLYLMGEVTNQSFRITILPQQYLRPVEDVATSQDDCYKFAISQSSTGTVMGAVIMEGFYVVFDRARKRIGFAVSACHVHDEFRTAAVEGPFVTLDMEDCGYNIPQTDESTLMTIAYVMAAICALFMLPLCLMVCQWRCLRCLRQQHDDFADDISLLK
# [18] = Cytotoxicity against human HEp-2 cells assessed as reduction in cell viability incubated for 3 to 10 days by MTS assay; assay type: toxicity, cell-based; details: time 3-10 day
# [19] = Anticancer activity against human DND41 cells assessed as cell growth inhibition incubated for 72 hrs by CellTiter96 aqueous Non-Radioactive Cell Proliferation Assay; assay type: functional
# [20] = test system: HL-60; assay: Anticancer activity against human HL-60 cells assessed as cell growth inhibition incubated for 72 hrs by CellTiter96 aqueous Non-Radioactive Cell Proliferation Assay; assay type: functional
# [21] = Cytotoxicity against African green monkey Vero cells assessed as reduction in cell viability incubated for 3 to 10 days by MTS assay; assay type: toxicity, cell-based; details: chlorocebus sabaeus, time 3-10 day
# [22] = test system: MCF7; assay: Antiproliferative activity against human MCF7 cells assessed as cell growth inhibition incubated for 72 hrs by MTT assay; assay type: functional
# [23] = test system: Coxsackievirus; assay: Antiviral activity against Coxsackievirus B4 infected in human HEp-2 cells assessed as reduction in virus-induced cytopathic effect incubated for 3 to 10 days by MTS assay; assay type: functional, organism-based; details: B4, HEp-2
# [24] = test system: LN-229; assay: Anticancer activity against human LN-229 cells assessed as cell growth inhibition by MTS assay; assay type: functional
# [25] = test system: K562; assay: Anticancer activity against human K562 cells assessed as cell growth inhibition incubated for 72 hrs by CellTiter96 aqueous Non-Radioactive Cell Proliferation Assay; assay type: functional
# [26] = test system: Z-138; assay: Anticancer activity against human Z138 cells assessed as cell growth inhibition incubated for 72 hrs by CellTiter96 aqueous Non-Radioactive Cell Proliferation Assay; assay type: functional
# [27] = test system: HCT-116; assay: Anticancer activity against human HCT-116 cells assessed as cell growth inhibition incubated for 72 hrs by MTT assay; assay type: functional
# [28] = test system: Zika virus; assay: Antiviral activity against Zika virus infected in African green monkey Vero cells assessed as reduction in virus-induced cytopathic effect incubated for 3 to 10 days by MTS assay; assay type: functional, organism-based
# [29] = test system: NCI-H460; assay: Anticancer activity against human NCI-H460 cells assessed as cell growth inhibition incubated for 72 hrs by MTT assay; assay type: functional
# [30] = test system: CAPAN-1; assay: Anticancer activity against human CAPAN-1 cells assessed as cell growth inhibition by MTS assay; assay type: functional
# [31] = test system: Plasmodium falciparum; assay: Antimalarial activity against chloroquine resistant sorbitol synchronized Plasmodium falciparum W2 assessed as inhibition of parasite growth incubated for 72 hrs by HRP2 ELISA based assay; assay type: functional, organism-based; details: W2, 72 h
# [32] = test system: Plasmodium falciparum; assay: Antimalarial activity against chloroquine sensitive sorbitol synchronized Plasmodium falciparum 3D7 assessed as inhibition of parasite growth incubated for 72 hrs by HRP2 ELISA based assay; assay type: functional, organism-based; details: 3D7, 72 h
# [33] = test system: Staphylococcus aureus; assay: Antibacterial activity against Staphylococcus aureus NCIM-2079 incubated for 16 to 24 hrs by broth microdilution method; assay type: functional; details: time 16-24 hrs
# [34] = test system: Proteus vulgaris; assay: Antibacterial activity against Proteus vulgaris […] NCIM-2027 incubated for 16 to 24 hrs by broth microdilution method; assay type: functional; details: time 16-24 hrs
# [35] = test system: Bacillus cereus; assay: Antibacterial activity against Bacillus cereus NCIM-2156 incubated for 16 to 24 hrs by broth microdilution method; assay type: functional; details: time 16-24 hrs
# [36] = test system: Pseudomonas aeruginosa; assay: Antibacterial activity against Pseudomonas aeruginosa NCIM-2036 incubated for 16 to 24 hrs by broth microdilution method; assay type: functional; details: time 16-24 hrs
# [37] = test system: Escherichia coli; assay: Antibacterial activity against Escherichia coli NCIM-2065 incubated for 16 to 24 hrs by broth microdilution method; assay type: functional; details: time 16-24 hrs
# [38] = test system: Bacillus subtilis; assay: Antibacterial activity against Bacillus subtilis NCIM-2063 incubated for 16 to 24 hrs by broth microdilution method; assay type: functional; details: time 16-24 hrs
# [39] = test system: SARS-CoV; assay: Antiviral activity against SARS-CoV 2019-nCoV infected in african green monkey Vero E6 cells; assay type: functional; details: Severe acute respiratory syndrome-related coronavirus, Vero C1008
# [40] = Inhibition of ConA-induced IL-1beta secretion in female BALB/c mouse splenocyte incubated for 48 hrs by ELISA; assay type: functional, cell-based
# [41] = Inhibition of ConA-induced TNF-alpha secretion in female BALB/c mouse splenocyte incubated for 48 hrs by ELISA; assay type: functional, cell-based
# [42] = Inhibition of ConA-induced IL-6 secretion in female BALB/c mouse splenocyte incubated for 48 hrs by ELISA; assay type: functional, cell-based
# [43] = target: Acetylcholinesterase (Homo sapiens, UniProt P22303); assay: Inhibition of AChE (unknown origin)
# Chain of Acetylcholinesterase (Homo sapiens, UniProt P22303) (P22303 whole entry): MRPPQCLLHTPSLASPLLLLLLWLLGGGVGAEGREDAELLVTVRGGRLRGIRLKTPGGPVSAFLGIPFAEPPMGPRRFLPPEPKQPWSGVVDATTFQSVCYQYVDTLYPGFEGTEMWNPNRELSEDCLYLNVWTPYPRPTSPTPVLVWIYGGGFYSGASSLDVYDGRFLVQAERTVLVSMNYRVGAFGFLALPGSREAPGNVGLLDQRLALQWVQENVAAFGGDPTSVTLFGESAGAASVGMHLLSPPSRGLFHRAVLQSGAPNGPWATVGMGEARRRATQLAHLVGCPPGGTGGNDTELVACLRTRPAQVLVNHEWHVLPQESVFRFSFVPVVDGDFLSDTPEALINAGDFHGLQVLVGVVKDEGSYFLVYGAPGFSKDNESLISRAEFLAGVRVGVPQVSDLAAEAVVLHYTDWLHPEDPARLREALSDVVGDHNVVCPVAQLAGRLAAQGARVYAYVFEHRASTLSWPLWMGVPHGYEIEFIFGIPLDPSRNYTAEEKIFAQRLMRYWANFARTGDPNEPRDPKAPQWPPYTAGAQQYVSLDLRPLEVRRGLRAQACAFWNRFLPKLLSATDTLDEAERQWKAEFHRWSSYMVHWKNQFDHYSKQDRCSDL
# [44] = test system: MCF7; assay: Cytotoxicity against human MCF7 cells; assay type: functional, cell-based
# [45] = test system: DU-145; assay: Cytotoxicity against human DU-145 cells; assay type: functional, cell-based
# [46] = test system: Curvularia lunata; assay: Antifungal activity against Curvularia lunata incubated for 72 hrs by mycelium growth rate method; assay type: functional, organism-based
# [47] = test system: Pyricularia grisea; assay: Antifungal activity against Pyricularia grisea incubated for 72 hrs by mycelium growth rate method; assay type: functional, organism-based
# [48] = test system: Alternaria alternata; assay: Antifungal activity against Alternaria alternata incubated for 72 hrs by mycelium growth rate method; assay type: functional, organism-based
smiles,measurement,setting,value
NCCCNc1nc(NCCCN)nc(NC(=S)NNc2ccnc3cc(Cl)ccc23)n1,MIC,[1],8 µg/mL
same,MIC,[2],8 µg/mL
same,MIC,[3],8 µg/mL
CCCCCCCCCCn1cc(CNCCNc2ccnc3cc(Cl)ccc23)nn1,IC50,[4],1.1 µM
same,IC50,[5],5.7 µM
same,selectivity ratio,[6],16
CC(C)Cc1ccc(C(C)C(=O)NCCNc2ccnc3cc(Cl)ccc23)cc1 (stereo not drawn),Ratio IC50,[7],4
O=C(Cn1cc(COc2ccc(Br)cc2)nn1)NCCNc1ccnc2cc(Cl)ccc12,IC50,[8],0.04 µM
O=C(CN1CCN(c2ccccc2)CC1)N1CCN(c2ccnc3cc(Cl)ccc23)CC1,Activity,[9],34%
same,Activity,[10],50%
same,Activity,[11],64%
CCOC(=O)c1nn(CCNc2ccnc3cc(Cl)ccc23)c2c1C(c1ccc(CC)cc1)C(C#N)=C(N)O2 (stereo not drawn),EC50,[12],0.02 µM
CC(CNc1ccnc2cc(Cl)ccc12)NC(=O)Nc1nc2ccc(C(F)(F)F)cc2s1 (stereo not drawn),Activity,[13],100%
same,MIC,[14],0.968 µM
Nc1c2c(nc3c1C(c1cccc([N+](=O)[O-])c1)C1=C(O3)C(=O)c3ccccc3C1=O)CCCC2 (stereo not drawn),IC50,[15],6.03 µM
same,IC50,[16],0.86 µM
same,IC50,[17],19.6 µM
C/C(=C\C(=O)NCCCCNc1cc(C(F)(F)F)nc2c(C(F)(F)F)cccc12)C(=O)NCCCCNc1cc(C(F)(F)F)nc2c(C(F)(F)F)cccc12,CC50,[18],6.7 µM
same,GI50,[19],7.9 µM
same,GI50,[20],2.6 µM
same,CC50,[21],10 µM
same,GI50,[22],0.7 µM
same,EC50,[23],0.85 µM
same,GI50,[24],2.4 µM
same,GI50,[25],8.6 µM
same,GI50,[26],6.9 µM
same,GI50,[27],2.4 µM
same,EC50,[28],0.85 µM
same,GI50,[29],3 µM
same,GI50,[30],2.3 µM
COc1cc(NC(C)CCCN)c2ncccc2c1 (stereo not drawn) [PRIMAQUINE],IC50,[31],0.182 µM
same,IC50,[32],1.12 µM
O=[N+]([O-])c1ccc(Nc2nc(NC(=S)NNc3ccnc4cc(Cl)ccc34)nc(Nc3ccc([N+](=O)[O-])cc3)n2)cc1,MIC,[33],3.12 µM
same,MIC,[34],3.12 µM
same,MIC,[35],12.5 µM
same,MIC,[36],3.12 µM
same,MIC,[37],12.5 µM
same,MIC,[38],25 µM
CCN(CC)CCCC(C)Nc1ccnc2cc(Cl)ccc12 (stereo not drawn) [CHLOROQUINE],EC90,[39],6.9 µM
same,IC50,[40],2.72 µM
same,IC50,[41],35 µM
same,IC50,[42],14.6 µM
O=P(NCCCCCCCCCCCCNc1c2c(nc3ccccc13)CCCC2)(Oc1ccccc1)Oc1ccccc1,IC50,[43],24300 µM
CC1(C)CC[C@]2(C(=O)O)CC[C@]3(C)C(=CC[C@@H]4[C@@]5(C)CC[C@H](O)C(C)(C)[C@@H]5CC[C@]43C)[C@@H]2C1 [OLEANOLIC_ACID],IC50,[44],> 200 µM
same,IC50,[45],> 200 µM
Cl.Clc1ccc(Nc2cc(-c3ccccc3)nc3ccccc23)cc1,EC50,[46],13.3 µg/mL
same,EC50,[47],14.4 µg/mL
same,EC50,[48],15.6 µg/mL

# — ChEMBL document CHEMBL6177931, “Exploring diverse frontiers: Advancements of bioactive 4-aminoquinoline-based molecular hybrids in targeted therapeutics and beyond” (Eur J Med Chem, 2024)
